Assay: mn = molality of the nth substance listed, in mol/kg
Conditions: Liquid, isochoric method

CCCCCC[n+]1ccn(C)c1.O=S(=O)([N-]S(=O)(=O)C(F)(F)F)C(F)(F)F + O=C=O
Conditions	molar volume [m3/mol]
303.15 K, 228.1 kPa, m2 = 0.1549	0.0003078
303.15 K, 400.5 kPa, m2 = 0.277	0.0002962
303.15 K, 642.1 kPa, m2 = 0.4471	0.0002815
303.15 K, 786.2 kPa, m2 = 0.5432	0.0002738
303.15 K, 1036.5 kPa, m2 = 0.726	0.0002604
303.15 K, 1399.2 kPa, m2 = 0.9896	0.000243
303.15 K, 1689 kPa, m2 = 1.194	0.0002316
303.15 K, 1806.5 kPa, m2 = 1.29	0.0002265
303.15 K, 2065.3 kPa, m2 = 1.48	0.000217
303.15 K, 2289.9 kPa, m2 = 1.65	0.0002093
303.15 K, 2463.9 kPa, m2 = 1.782	0.0002037
303.15 K, 2819.3 kPa, m2 = 2.069	0.0001926
303.15 K, 3076.9 kPa, m2 = 2.267	0.0001856
303.15 K, 3555.5 kPa, m2 = 2.65	0.0001736
313.15 K, 337.1 kPa, m2 = 0.1947	0.0003066
313.15 K, 699.4 kPa, m2 = 0.4069	0.0002879
313.15 K, 1209.5 kPa, m2 = 0.7242	0.0002644
313.15 K, 1653.6 kPa, m2 = 1.006	0.0002471
313.15 K, 2111.8 kPa, m2 = 1.285	0.0002306
313.15 K, 2538.3 kPa, m2 = 1.615	0.0002177
313.15 K, 3188.6 kPa, m2 = 2.11	0.0001995
323.15 K, 465.7 kPa, m2 = 0.2272	0.0003063
323.15 K, 850.7 kPa, m2 = 0.4281	0.0002889
323.15 K, 1323.9 kPa, m2 = 0.6731	0.0002706
323.15 K, 1708.8 kPa, m2 = 0.8789	0.0002573
323.15 K, 2180.2 kPa, m2 = 1.152	0.0002419
323.15 K, 2704.6 kPa, m2 = 1.345	0.0002273
323.15 K, 3105.7 kPa, m2 = 1.546	0.0002172
333.15 K, 245.6 kPa, m2 = 0.1044	0.0003209
333.15 K, 519.1 kPa, m2 = 0.2209	0.0003096
333.15 K, 894.3 kPa, m2 = 0.3855	0.0002952
333.15 K, 1364.2 kPa, m2 = 0.6046	0.0002782
333.15 K, 1849.2 kPa, m2 = 0.8295	0.0002632
333.15 K, 2312.2 kPa, m2 = 1.051	0.0002501
333.15 K, 2799.2 kPa, m2 = 1.3	0.0002373
343.15 K, 474.1 kPa, m2 = 0.1783	0.0003165
343.15 K, 952.8 kPa, m2 = 0.3503	0.0003002
343.15 K, 1440.2 kPa, m2 = 0.553	0.0002849
343.15 K, 1937.6 kPa, m2 = 0.7557	0.0002707
343.15 K, 2453.7 kPa, m2 = 0.974	0.0002573
343.15 K, 2938.6 kPa, m2 = 1.181	0.0002461
343.15 K, 3446.9 kPa, m2 = 1.424	0.0002344
353.15 K, 502 kPa, m2 = 0.1643	0.0003208
353.15 K, 987.3 kPa, m2 = 0.3338	0.0003053
353.15 K, 1440.2 kPa, m2 = 0.4916	0.0002925
353.15 K, 1907.3 kPa, m2 = 0.6717	0.0002794
353.15 K, 2419.6 kPa, m2 = 0.8598	0.0002671
353.15 K, 2888.3 kPa, m2 = 1.037	0.0002567

CCCCn1cc[n+](C)c1.O=S(=O)([O-])C(F)(F)F [1-butyl-3-methylimidazolium trifluoromethanesulfonate] + O=C=O
Conditions	molar volume [m3/mol]
303.15 K, 233.6 kPa, m2 = 0.1586	0.0002163
303.15 K, 712 kPa, m2 = 0.5016	0.0002044
303.15 K, 1209.3 kPa, m2 = 0.8577	0.0001937
303.15 K, 1706.3 kPa, m2 = 1.236	0.0001836
303.15 K, 2180.4 kPa, m2 = 1.637	0.0001742
303.15 K, 2663.3 kPa, m2 = 2.038	0.000166
303.15 K, 3188 kPa, m2 = 2.481	0.000158
313.15 K, 244.1 kPa, m2 = 0.1345	0.0002188
313.15 K, 713.2 kPa, m2 = 0.418	0.0002088
313.15 K, 1212.5 kPa, m2 = 0.7087	0.0001997
313.15 K, 1722.9 kPa, m2 = 1.029	0.0001907
313.15 K, 2194.4 kPa, m2 = 1.329	0.0001831
313.15 K, 2669.6 kPa, m2 = 1.632	0.0001761
313.15 K, 3135.3 kPa, m2 = 1.944	0.0001696
323.15 K, 239.4 kPa, m2 = 0.1102	0.0002213
323.15 K, 707.7 kPa, m2 = 0.3453	0.0002129
323.15 K, 1223.5 kPa, m2 = 0.5993	0.0002047
323.15 K, 1721.4 kPa, m2 = 0.8739	0.0001966
323.15 K, 2204.9 kPa, m2 = 1.131	0.0001897
323.15 K, 2697.2 kPa, m2 = 1.397	0.0001832
323.15 K, 3198.1 kPa, m2 = 1.707	0.0001762
333.15 K, 239.9 kPa, m2 = 0.0968	0.0002234
333.15 K, 756.2 kPa, m2 = 0.3124	0.0002157
333.15 K, 1259.5 kPa, m2 = 0.5379	0.0002083
333.15 K, 1767.4 kPa, m2 = 0.7626	0.0002015
333.15 K, 2242.8 kPa, m2 = 0.9814	0.0001953
333.15 K, 2734.2 kPa, m2 = 1.226	0.000189
333.15 K, 3236.7 kPa, m2 = 1.474	0.0001831
343.15 K, 250.3 kPa, m2 = 0.0877	0.0002253
343.15 K, 746.9 kPa, m2 = 0.2655	0.0002189
343.15 K, 1255 kPa, m2 = 0.4535	0.0002126
343.15 K, 1759 kPa, m2 = 0.6555	0.0002063
343.15 K, 2265.7 kPa, m2 = 0.8561	0.0002004
343.15 K, 2732.5 kPa, m2 = 1.072	0.0001946
343.15 K, 3216 kPa, m2 = 1.276	0.0001895

S [hydrogen sulfide] + CCCCn1cc[n+](C)c1.O=S(=O)([O-])C(F)(F)F
Conditions	molar volume [m3/mol]
303.15 K, 172.6 kPa, m1 = 0.5717	0.0001972
303.15 K, 339.1 kPa, m1 = 1.141	0.000178
303.15 K, 491.8 kPa, m1 = 1.715	0.0001633
303.15 K, 691.5 kPa, m1 = 2.517	0.0001472
303.15 K, 857 kPa, m1 = 3.192	0.0001371
303.15 K, 1016.5 kPa, m1 = 3.857	0.0001282
303.15 K, 1178.1 kPa, m1 = 4.512	0.0001212
303.15 K, 1368.5 kPa, m1 = 5.449	0.0001129
303.15 K, 1494.2 kPa, m1 = 6.127	0.000108
313.15 K, 169.3 kPa, m1 = 0.4237	0.0002046
313.15 K, 392.6 kPa, m1 = 1.017	0.0001836
313.15 K, 605 kPa, m1 = 1.634	0.0001669
313.15 K, 813.7 kPa, m1 = 2.295	0.0001529
313.15 K, 1021.5 kPa, m1 = 3.03	0.0001406
313.15 K, 1244.6 kPa, m1 = 3.892	0.0001294
313.15 K, 1455.3 kPa, m1 = 4.807	0.00012
313.15 K, 1592.1 kPa, m1 = 5.49	0.0001142
323.15 K, 188 kPa, m1 = 0.3783	0.000208
323.15 K, 418.4 kPa, m1 = 0.874	0.0001897
323.15 K, 647.6 kPa, m1 = 1.409	0.0001741
323.15 K, 1041.4 kPa, m1 = 2.42	0.0001522
323.15 K, 1294 kPa, m1 = 3.138	0.0001407
323.15 K, 1501.2 kPa, m1 = 3.819	0.0001319
323.15 K, 1614.4 kPa, m1 = 4.192	0.0001272
333.15 K, 196.6 kPa, m1 = 0.3257	0.0002118
333.15 K, 459.2 kPa, m1 = 0.7804	0.0001944
333.15 K, 705.7 kPa, m1 = 1.237	0.0001803
333.15 K, 907.8 kPa, m1 = 1.635	0.00017
333.15 K, 1176.8 kPa, m1 = 2.188	0.0001581
333.15 K, 1400.8 kPa, m1 = 2.685	0.0001492
333.15 K, 1570.7 kPa, m1 = 3.114	0.0001426
343.15 K, 207.6 kPa, m1 = 0.279	0.0002154
343.15 K, 456.9 kPa, m1 = 0.6403	0.000201
343.15 K, 706.7 kPa, m1 = 1.021	0.0001882
343.15 K, 923.5 kPa, m1 = 1.369	0.0001783
343.15 K, 1176.5 kPa, m1 = 1.798	0.0001679
343.15 K, 1391.1 kPa, m1 = 2.179	0.0001599
343.15 K, 1632 kPa, m1 = 2.646	0.0001515

From the NIST ThermoML archive (doi:10.1016/j.fluid.2017.09.003)
